Laboratory results taken from paper PMC10574094, “Discovery of a SHP2 Degrader with In Vivo Anti-Tumor Activity” (Molecules, 2023).

Tests used:
ERK1/2, AKT, β-Actin = assay: Western blot of other signaling proteins in HEK293 cells; type: cell-based, human; settings: 1 μM P9, 16 h
Procedure: (§1) HEK293, SKBR3, U2OS, MCF7 and A549 cells were grown in DMEM supplemented with 10% FBS, penicillin (50 units/mL), and streptomycin (50 μg/mL) in a 37 °C incubator containing 5% CO2. KYSE-520 and H358 cells were grown in RPMI-1640 supplemented with 10% FBS, penicillin (50 units/mL), and streptomycin (50 μg/mL) in a 37 °C incubator containing 5% CO2. For western-blot analysis, protein samples were separated by SDS-PAGE, transferred to nitrocellulose membranes, and incubated overnight at 4 °C with corresponding primary antibodies diluted in 5% BSA in phosphate-buffered saline Tween (PBST). SuperSignal™ West Pico PLUS (PI34580; Thermo Scientific) was used to visualize the antibodies in the bioanalytical imaging system (Azure Biosystems c500). Anti-p-ERK1/2 (T202/Y204) (4370), and anti-ERK1/2 (4696) were purchased from Cell Signaling Technology. Anti-GAPDH (sc-365062), anti-SHP2 (sc-7384), anti-SHP1 (sc-7289), and anti-Actin (sc-8432) antibodies were purchased from Santa Cruz. Anti-PTP1B (ab244207) antibody was purchased from Abcam. For colony formation assay, a total of approximately 200–500 cells were seeded to each well in a 12-well plate. The wells were then treated with DMSO, compound P9 and 3 at 37 °C for 3 weeks, gently washed, and stained with crystal violet.

CD45 = CD45 (Homo sapiens, UniProt P08575); assay: PTP inhibition assay (pNPP); type: biochemical
Procedure: (§2) PTP activity was assayed using p-nitrophenyl phosphate (pNPP) as a substrate in DMG buffer (50 mM DMG, pH 7.0, 1 mM EDTA, 150 mM NaCl, 2 mM DTT, 0.1 mg/mL BSA) at 25 °C. The assays were performed in 96-well plates. To determine the IC50 values, the reaction was initiated by the addition of enzyme (final concentration = 10 nM) to a reaction mixture (0.2 mL) containing pNPP (at a final concentration close to the Kms of tested enzymes, in specific: 0.05 mM for CDC-14A; 0.5 mM for FAP-1; 2 mM for TC-PTP, PTP1B, STEP, LWM-PTP, and PTPα; 3 mM for SHP1; 4 mM for Laforin; 5 mM for LYP, CD45, and VHR; 6 mM for PTP-MEG2 and HePTP) with various concentrations of inhibitors. The reaction rate was measured using a SpectraMax Plus 384 Microplate Spectrophotometer (Molecular Devices, San Jose, CA, USA). Data were fitted using the SigmaPlot Enzyme Kinetics Module (Systat Software, Inc., San Jose, CA, USA).

CDC-14A = CDC-14A (Homo sapiens, UniProt Q9UNH5); assay: PTP inhibition assay (pNPP); type: biochemical
Procedure: as §2

FAP-1 = FAP-1 (Homo sapiens, UniProt Q12923); assay: PTP inhibition assay (pNPP); type: biochemical
Procedure: as §2

HePTP = HePTP (Homo sapiens, UniProt P35236); assay: PTP inhibition assay (pNPP); type: biochemical
Procedure: as §2

LMW-PTP = LMW-PTP (Homo sapiens, UniProt P24666); assay: PTP inhibition assay (pNPP); type: biochemical
Procedure: as §2

LYP = LYP (Homo sapiens, UniProt Q9Y2R2); assay: PTP inhibition assay (pNPP); type: biochemical
Procedure: as §2

Laforin = Laforin (Homo sapiens, UniProt O95278); assay: PTP inhibition assay (pNPP); type: biochemical
Procedure: as §2

PTP-MEG2 = PTP-MEG2 (Homo sapiens, UniProt P43378); assay: PTP inhibition assay (pNPP); type: biochemical
Procedure: as §2

PTP-α = PTP-α (Homo sapiens, UniProt P18433); assay: PTP inhibition assay (pNPP); type: biochemical
Procedure: as §2

PTP1B = PTP1B (Homo sapiens, UniProt P18031); assay: PTP inhibition assay (pNPP); type: biochemical
Procedure: as §2

SHP1 = SHP1 (Homo sapiens, UniProt P29350); assay: PTP inhibition assay (pNPP); type: biochemical
Procedure: as §2

STEP = STEP (Homo sapiens, UniProt P54829); assay: PTP inhibition assay (pNPP); type: biochemical
Procedure: as §2

TC-PTP = TC-PTP (Homo sapiens, UniProt P17706); assay: PTP inhibition assay (pNPP); type: biochemical
Procedure: as §2

VHR = VHR (Homo sapiens, UniProt P51452); assay: PTP inhibition assay (pNPP); type: biochemical
Procedure: as §2

pERK1/2 = pERK1/2 inhibition by Western blotting in KYSE-520 cells; type: cell-based; settings: Homo sapiens, 16 h
Procedure: as §1

[1] = system: KYSE-520, SKBR3, U2OS, MCF7, H358 and A549 cells; assay: Colony formation assay; type: cell-based; settings: 3 weeks treatment
Procedure: as §1

KYSE-520 xenograft = KYSE-520 xenograft tumor growth; type: in vivo, mice; settings: 18 days
Procedure: Experiments on mice were carried out in accordance with the regulations of the Institutional Animal Care and Use Committees at Purdue University. All mice were housed under pathogen-free conditions in the animal facility and received autoclaved water and food. Eight to ten weeks-old Nude mice were used in the study.
For the xenograft tumor study, KYSE-520 cells were suspended in PBS and a total of 3 × 10^6 cells (100 μL) were subcutaneously implanted into both the left and right flank using a 27-gauge needle. Tumor volume was calculated using the formula V = (W^2 × L)/2 for caliper measurements. Once the tumor volume reaches 200 mm^3, daily intraperitoneal injection of either control, 25 mg/kg or 50 mg/kg of compound P9 was performed. Mice were sacrificed after injection for 18 days, and tumors were collected for biochemical analysis.

Chain of PTP-α (P18433 20-802): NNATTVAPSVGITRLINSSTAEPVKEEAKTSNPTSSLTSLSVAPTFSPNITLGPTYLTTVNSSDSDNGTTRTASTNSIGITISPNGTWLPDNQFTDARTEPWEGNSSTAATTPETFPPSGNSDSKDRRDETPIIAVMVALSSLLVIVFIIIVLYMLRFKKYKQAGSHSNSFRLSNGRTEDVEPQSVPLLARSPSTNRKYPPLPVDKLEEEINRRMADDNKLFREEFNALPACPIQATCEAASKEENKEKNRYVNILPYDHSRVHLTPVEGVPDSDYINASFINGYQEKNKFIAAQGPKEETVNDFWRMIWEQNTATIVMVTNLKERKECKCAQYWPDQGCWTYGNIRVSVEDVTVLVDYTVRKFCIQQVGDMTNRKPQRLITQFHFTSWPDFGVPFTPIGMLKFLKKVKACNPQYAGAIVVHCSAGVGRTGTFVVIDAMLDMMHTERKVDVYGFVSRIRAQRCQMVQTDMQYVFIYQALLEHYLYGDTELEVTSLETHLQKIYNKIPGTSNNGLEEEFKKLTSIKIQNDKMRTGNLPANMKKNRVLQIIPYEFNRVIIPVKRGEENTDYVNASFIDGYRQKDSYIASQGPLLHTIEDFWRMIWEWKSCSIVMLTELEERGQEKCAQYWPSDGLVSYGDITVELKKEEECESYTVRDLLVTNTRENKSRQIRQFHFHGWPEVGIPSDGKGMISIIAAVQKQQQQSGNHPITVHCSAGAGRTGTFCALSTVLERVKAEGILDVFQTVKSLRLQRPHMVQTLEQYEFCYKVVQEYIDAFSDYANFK
Chain of CD45 (P08575 26-1306, species assumed): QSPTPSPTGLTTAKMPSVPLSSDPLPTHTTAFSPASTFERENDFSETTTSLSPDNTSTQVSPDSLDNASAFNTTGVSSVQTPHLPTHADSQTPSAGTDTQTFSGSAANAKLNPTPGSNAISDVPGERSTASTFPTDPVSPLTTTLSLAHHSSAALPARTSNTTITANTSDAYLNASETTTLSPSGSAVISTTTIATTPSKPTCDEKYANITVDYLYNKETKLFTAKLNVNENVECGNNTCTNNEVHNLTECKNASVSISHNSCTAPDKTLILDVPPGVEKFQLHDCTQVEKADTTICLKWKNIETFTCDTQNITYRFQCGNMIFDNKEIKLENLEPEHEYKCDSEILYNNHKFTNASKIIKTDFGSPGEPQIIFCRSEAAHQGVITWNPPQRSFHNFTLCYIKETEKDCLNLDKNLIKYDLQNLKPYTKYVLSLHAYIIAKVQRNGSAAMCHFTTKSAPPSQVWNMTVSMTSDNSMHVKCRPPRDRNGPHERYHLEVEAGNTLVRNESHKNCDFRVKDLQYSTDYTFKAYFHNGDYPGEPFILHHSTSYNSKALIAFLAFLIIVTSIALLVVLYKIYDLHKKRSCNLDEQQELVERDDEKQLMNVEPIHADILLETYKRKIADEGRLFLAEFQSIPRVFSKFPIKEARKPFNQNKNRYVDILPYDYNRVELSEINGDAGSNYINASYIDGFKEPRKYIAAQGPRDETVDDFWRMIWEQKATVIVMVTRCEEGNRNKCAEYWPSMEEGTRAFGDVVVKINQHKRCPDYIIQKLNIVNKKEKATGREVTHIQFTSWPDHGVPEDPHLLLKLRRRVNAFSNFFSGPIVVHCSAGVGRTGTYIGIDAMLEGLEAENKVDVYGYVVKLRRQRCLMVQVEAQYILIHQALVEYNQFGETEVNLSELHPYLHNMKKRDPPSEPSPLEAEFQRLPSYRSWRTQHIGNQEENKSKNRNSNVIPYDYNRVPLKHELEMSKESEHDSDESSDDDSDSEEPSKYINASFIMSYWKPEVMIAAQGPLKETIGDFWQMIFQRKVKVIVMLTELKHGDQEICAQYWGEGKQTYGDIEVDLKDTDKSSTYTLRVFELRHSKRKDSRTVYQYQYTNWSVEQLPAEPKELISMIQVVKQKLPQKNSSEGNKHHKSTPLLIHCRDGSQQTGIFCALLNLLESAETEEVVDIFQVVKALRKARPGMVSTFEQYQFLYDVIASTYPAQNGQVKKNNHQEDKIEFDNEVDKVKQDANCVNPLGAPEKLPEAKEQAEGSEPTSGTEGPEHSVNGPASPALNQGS
Chain of CDC-14A (Q9UNH5 whole entry, species assumed): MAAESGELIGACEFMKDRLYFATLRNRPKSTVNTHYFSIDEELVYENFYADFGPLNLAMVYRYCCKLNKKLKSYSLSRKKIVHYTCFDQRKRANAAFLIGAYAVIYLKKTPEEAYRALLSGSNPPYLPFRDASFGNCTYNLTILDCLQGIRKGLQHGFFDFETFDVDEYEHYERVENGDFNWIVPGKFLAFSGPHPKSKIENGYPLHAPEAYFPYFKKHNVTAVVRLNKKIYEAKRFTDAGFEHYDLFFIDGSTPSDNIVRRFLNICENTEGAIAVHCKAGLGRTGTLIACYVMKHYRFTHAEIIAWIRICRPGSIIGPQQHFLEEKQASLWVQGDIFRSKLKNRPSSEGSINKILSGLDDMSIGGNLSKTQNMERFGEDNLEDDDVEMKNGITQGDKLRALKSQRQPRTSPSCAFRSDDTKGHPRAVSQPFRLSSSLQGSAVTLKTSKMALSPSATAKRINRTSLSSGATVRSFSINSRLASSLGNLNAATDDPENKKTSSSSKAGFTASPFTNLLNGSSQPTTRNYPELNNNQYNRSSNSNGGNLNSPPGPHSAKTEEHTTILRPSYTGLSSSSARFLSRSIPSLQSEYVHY
Chain of TC-PTP (P17706 whole entry, species assumed): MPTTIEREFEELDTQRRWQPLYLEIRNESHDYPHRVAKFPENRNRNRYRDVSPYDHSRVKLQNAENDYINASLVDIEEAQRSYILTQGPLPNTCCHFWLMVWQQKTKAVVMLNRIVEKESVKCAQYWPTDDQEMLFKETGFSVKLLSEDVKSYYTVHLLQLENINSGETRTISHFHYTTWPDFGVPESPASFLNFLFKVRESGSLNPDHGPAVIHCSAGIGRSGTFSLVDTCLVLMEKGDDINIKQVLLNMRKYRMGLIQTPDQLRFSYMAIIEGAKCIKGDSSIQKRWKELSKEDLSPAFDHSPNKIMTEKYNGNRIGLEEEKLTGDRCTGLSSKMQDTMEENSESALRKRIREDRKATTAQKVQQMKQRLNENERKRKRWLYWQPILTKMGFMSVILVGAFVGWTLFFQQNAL
Chain of Laforin (O95278 whole entry, species assumed): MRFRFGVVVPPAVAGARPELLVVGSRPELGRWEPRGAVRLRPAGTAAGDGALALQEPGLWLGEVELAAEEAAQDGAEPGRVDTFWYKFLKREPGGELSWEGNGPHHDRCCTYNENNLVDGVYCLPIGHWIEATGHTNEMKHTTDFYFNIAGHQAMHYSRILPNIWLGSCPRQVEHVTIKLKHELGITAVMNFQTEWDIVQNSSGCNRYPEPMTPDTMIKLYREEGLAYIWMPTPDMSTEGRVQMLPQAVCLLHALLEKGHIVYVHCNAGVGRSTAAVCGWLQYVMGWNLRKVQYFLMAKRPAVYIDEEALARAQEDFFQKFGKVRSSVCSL
Chain of LYP (Q9Y2R2 whole entry, species assumed): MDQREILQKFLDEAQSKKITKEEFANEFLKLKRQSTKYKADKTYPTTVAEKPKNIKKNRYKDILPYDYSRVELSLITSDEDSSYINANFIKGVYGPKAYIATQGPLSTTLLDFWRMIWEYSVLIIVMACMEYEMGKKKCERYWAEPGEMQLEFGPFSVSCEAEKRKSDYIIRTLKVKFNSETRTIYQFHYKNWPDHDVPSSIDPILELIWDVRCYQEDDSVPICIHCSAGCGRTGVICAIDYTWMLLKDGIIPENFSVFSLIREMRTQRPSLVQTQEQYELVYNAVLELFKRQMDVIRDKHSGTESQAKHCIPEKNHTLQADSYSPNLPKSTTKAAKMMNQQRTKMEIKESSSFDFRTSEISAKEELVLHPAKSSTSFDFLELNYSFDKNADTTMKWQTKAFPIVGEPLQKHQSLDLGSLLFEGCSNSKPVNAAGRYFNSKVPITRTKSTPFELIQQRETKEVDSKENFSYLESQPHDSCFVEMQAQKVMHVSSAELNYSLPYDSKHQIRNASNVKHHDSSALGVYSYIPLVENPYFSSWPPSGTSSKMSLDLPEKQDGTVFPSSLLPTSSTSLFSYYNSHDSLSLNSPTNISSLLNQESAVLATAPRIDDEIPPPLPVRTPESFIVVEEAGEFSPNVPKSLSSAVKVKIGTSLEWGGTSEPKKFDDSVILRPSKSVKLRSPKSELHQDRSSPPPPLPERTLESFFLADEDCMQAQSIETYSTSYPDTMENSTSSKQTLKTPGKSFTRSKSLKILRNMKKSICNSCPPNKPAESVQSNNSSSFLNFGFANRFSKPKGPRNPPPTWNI
Chain of SHP1 (P29350 whole entry): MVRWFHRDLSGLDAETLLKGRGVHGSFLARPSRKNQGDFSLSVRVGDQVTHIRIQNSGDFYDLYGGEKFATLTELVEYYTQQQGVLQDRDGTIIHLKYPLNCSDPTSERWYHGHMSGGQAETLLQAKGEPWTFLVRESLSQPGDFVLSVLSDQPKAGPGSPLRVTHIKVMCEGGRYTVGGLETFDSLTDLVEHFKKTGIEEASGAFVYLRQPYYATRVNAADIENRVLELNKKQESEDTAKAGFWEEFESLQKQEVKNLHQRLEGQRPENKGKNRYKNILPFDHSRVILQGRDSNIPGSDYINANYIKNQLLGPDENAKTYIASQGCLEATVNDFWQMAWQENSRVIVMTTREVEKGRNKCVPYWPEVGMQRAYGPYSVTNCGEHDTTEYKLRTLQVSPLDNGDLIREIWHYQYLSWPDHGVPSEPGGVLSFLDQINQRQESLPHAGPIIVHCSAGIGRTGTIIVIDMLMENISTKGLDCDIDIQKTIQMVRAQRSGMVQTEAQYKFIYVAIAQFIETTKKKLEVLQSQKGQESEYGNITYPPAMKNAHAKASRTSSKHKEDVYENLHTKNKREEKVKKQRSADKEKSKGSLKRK
Chain of LMW-PTP (P24666 whole entry, species assumed): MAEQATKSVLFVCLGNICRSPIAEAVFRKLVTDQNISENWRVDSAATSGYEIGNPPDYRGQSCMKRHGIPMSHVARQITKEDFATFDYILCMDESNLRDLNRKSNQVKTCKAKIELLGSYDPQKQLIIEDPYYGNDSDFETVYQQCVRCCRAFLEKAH

Cc1ncsc1-c1ccc([C@H](C)NC(=O)[C@@H]2C[C@@H](O)CN2C(=O)[C@@H](NC(=O)CCCCCCCCCN2CCN(C(=O)CCCCCC3(CN)CCN(c4cnc(Sc5cccc(Cl)c5Cl)c(N)n4)CC3)CC2)C(C)(C)C)cc1 [P9, (2S,4R)-1-((S)-2-(10-(4-(6-(1-(6-amino-5-((2,3-dichlorophenyl)thio)pyrazin-2-yl)-4-(aminomethyl)piperidin-4-yl)hexanoyl)piperazin-1-yl)decanamido)-3,3-dimethylbutanoyl)-4-hydroxy-N-((S)-1-(4-(4-methylthiazol-5-yl)phenyl)ethyl)pyrrolidine-2-carboxamide] was tested. Which “degradation of other signaling proteins” value (ERK1/2, AKT, β-Actin) did it give?
The value was “did not induce any appreciable degradation”.

What about the “Fold selectivity CD45” value (CD45; over SHP2) of the same compound?
Its value is greater than 105.

And the IC50 (CD45; pNPP 5 mM)?
Its IC50 is greater than 10 µM.

And the “Fold selectivity CDC-14A” value (CDC-14A; over SHP2)?
Its value is greater than 105.

And the IC50 (CDC-14A; pNPP 0.05 mM)?
The IC50 was greater than 10 µM.

And the “Fold selectivity FAP-1” value (FAP-1; over SHP2)?
The value was greater than 105.

And the IC50 (FAP-1; pNPP 0.5 mM)?
Its IC50 is greater than 10 µM.

What about the “Fold selectivity HePTP” value (HePTP; over SHP2) of the same compound?
The value was greater than 105.

And the IC50 (HePTP; pNPP 6 mM)?
The IC50 was greater than 10 µM.

What about the “Fold selectivity LMW-PTP” value (LMW-PTP; over SHP2) of the same compound?
The value was greater than 105.

What about the IC50 (LMW-PTP; pNPP 2 mM) of the same compound?
Its IC50 is greater than 10 µM.

And the “Fold selectivity LYP” value (LYP; over SHP2)?
Its value is greater than 105.

What about the IC50 (LYP; pNPP 5 mM) of the same compound?
The IC50 was greater than 10 µM.

What about the “Fold selectivity Laforin” value (Laforin; over SHP2) of the same compound?
The value was greater than 105.

What about the IC50 (Laforin; pNPP 4 mM) of the same compound?
Its IC50 is greater than 10 µM.

And the “Fold selectivity PTP-MEG2” value (PTP-MEG2; over SHP2)?
Its value is greater than 105.

And the IC50 (PTP-MEG2; pNPP 6 mM)?
Its IC50 is greater than 10 µM.

And the “Fold selectivity PTP-α” value (PTP-α; over SHP2)?
The value was greater than 105.

And the IC50 (PTP-α; pNPP 2 mM)?
The IC50 was greater than 10 µM.

What about the “Fold selectivity PTP1B” value (PTP1B; over SHP2) of the same compound?
Its value is greater than 105.

And the IC50 (PTP1B; pNPP 2 mM)?
The IC50 was greater than 10 µM.

And the “Fold selectivity SHP1” value (SHP1; over SHP2)?
The value was greater than 105.

What about the IC50 (SHP1; pNPP 3 mM) of the same compound?
Its IC50 is greater than 10 µM.

What about the “Fold selectivity STEP” value (STEP; over SHP2) of the same compound?
The value was greater than 105.

And the IC50 (STEP; pNPP 2 mM)?
Its IC50 is greater than 10 µM.

What about the “Fold selectivity TC-PTP” value (TC-PTP; over SHP2) of the same compound?
Its value is greater than 105.

What about the IC50 (TC-PTP; pNPP 2 mM) of the same compound?
The IC50 was greater than 10 µM.

What about the “Fold selectivity VHR” value (VHR; over SHP2) of the same compound?
The value was greater than 105.

And the IC50 (VHR; pNPP 5 mM)?
The IC50 was greater than 10 µM.

And the EC50 (pERK1/2)?
Its EC50 is roughly 0.24 µM.

And the “growth inhibition in colony formation assay compared with compound 3” value [1]?
Its value is “improved efficacy in inhibiting the growth of these cancer cells”.

And the “effect on tumor burden” value (KYSE-520 xenograft; 25 mg/kg daily IP)?
Its value is “decrease in tumor burden”.

What about the “effect on tumor burden” value (KYSE-520 xenograft; 50 mg/kg daily IP) of the same compound?
The value was “nearly complete tumor regression”.
